Like-named read-outs stand apart in the source and are kept apart here.
Assays:
Format in all cases: cell-based
[1] = tested on: Bovine microvascular endothelial cells (BMEC); assay: Sulphorhodamine B (SRB) cytotoxicity test on BMEC; settings: for IC50: concentration corresponding to 50% of cytotoxic activity, read-out: Cytototoxicity on BMEC IC50; for Cytototoxicity on BMEC IC0: maximum non-cytotoxic concentration
Description: The evaluation of the intrinsic toxicity of chrysanthone A was done by comparing it with suramin using the Sulphorhodamine B (SRB) cytotoxicity test described here below.
Bovine microvascular endothelial cells (BMEC) were seeded, at a density of 3000 cells/well, on 96-well microtiter plates, in normal culture medium (200 μl/well). On the next day the study compounds were added to the wells in scalar concentrations. On the third day after seeding the medium was removed and three washings with PBS were performed. At the end of the washings, 200 μl of culture medium were added to each well and the plates were placed in an incubator at 37° C., 5% CO2 for the next 48 hours. At the end of this incubation period, the medium was removed and the cells were treated cold for 1 hour with a solution of 15% trichloroacetic acid (TCA). The wells were washed three times with distilled H2O by immersion of the plate and removal by overturning. 200 μl/well of 0.4% SRB in 1% acetic acid were added to the plates and incubated for 30 min. The wells were washed three times with 1% acetic acid, and lastly 200 μl/well of Tris 10 mM were added.
The staining of the well was quantified by spectrophotometric readout at a wavelength of 540 nm. Comparison of the values obtained in the wells containing the study compound and the controls made it possible to determine the IC50 and IC0 of the compound according to the invention, defined respectively as the concentration corresponding to 50% of cytotoxic activity (IC50) and the maximum non-cytotoxic concentration (IC0).
(§1) This test was conducted using the procedure described in Example 1.

BMEC endothelial cells = assay: Chemotaxis test using the Boyden chamber (BMEC migration towards bovine serum)
From the text: This test is the first screening assay for compounds with potential angiogenesis inhibiting or facilitating activity (Glaser B. M. et al, Nature, 1980; 288:483-4).
Chrysanthone A, one of the compounds to which the invention relates, was subjected to a chemotaxis test using the Boyden chamber (Werner F., Goodwin R. H. and Leonard E. J., Journal of Immunology Methods, 1980; 33:239-247).
The realisation of this in-vitro assay has entailed the development of techniques for the isolation and culture of bovine endothelial cells of both the aorta (BAEC) and the adrenal marrow (BMEC) as well as the identification of suitable reference compounds. One of the advantages of the use of the Boyden chamber for the chemotaxis test is the possibility of obtaining quantitative data. The Boyden chamber consists in an upper and a lower well separated by a polycarbonate filter with 8 μm pores. A solution containing the chemoattractant is placed in the lower well, while the cells are inserted in the upper well. After a period of incubation, the cells which have migrated across the filter in response to the chemotactic stimulus are counted on the undersurface of the membrane.
In the chemotaxis test, the chemoattractant selected was bovine serum (1% in DMEM culture medium). The BMEC endothelial cells were resuspended in DMEM with 1% bovine serum albumin (BSA) and analysed in this test for 4 hours. The chemotaxis was quantified by direct cell count under the optical microscope. The migration percentages presented in the chemotaxis table expressed as “% migration” were calculated according to the formula: (T−C/C)×100 where T=mean number (n^o) of cells migrating in the test sample, and C=mean number of cells migrating in the control.
A control consisting of cells not treated with the study compound, migrating towards the serum, was included in every chemotaxis experiment.
The mean number of cells migrating refers to the readings of 5 microscopic fields/well in 4 independent chemotaxis wells per sample.
Normally, suramin is used as the reference compound in chemotaxis tests.
as §1

LoVo-Dx line = assay: SRB cytotoxicity test on human tumour line LoVo-Dx
Mes-Sa line = assay: SRB cytotoxicity test on human tumour line Mes-Sa
MCF-7 line = assay: SRB cytotoxicity test on human tumour line MCF-7; settings: MCF7, MCF-7 human tumour line
LoVo line = assay: SRB cytotoxicity test on human tumour line LoVo
[2] = Bos taurus, Endothelial cell, compound at its IC0 (chrysanthone A 0.4 μM, two independent experiments; chrysanthone C 10 μM)

Row | Compound | IC50 ([1]; Bos taurus, Endothelial cell) [µM] | Cytototoxicity on BMEC IC0 [1] [µM] | inhibition at 10 µM (BMEC endothelial cells; [2]) [%] | IC50 ([1]; listed as chrysanthone A) [µM] | IC50 [1] [µM] | IC50 (LoVo-Dx line) [µM] | IC50 (Mes-Sa line) [µM] | IC50 (MCF-7 line) [µM] | IC50 (LoVo line) [µM] | inhibition at 0.4 µM (BMEC endothelial cells; [2]) [%] | inhibition of BMEC migration (BMEC endothelial cells; compound at its IC0 (chrysanthone A 0.4 μM, two independent experiments; chrysanthone C 10 μM)) | % Migration IC0 (BMEC endothelial cells; 1% bovine serum chemoattractant, 4 hours, compound at its IC0 (concentration printed in cell), (T−C/C)×100 vs untreated control) [μM = −58%]
1 | CO[C@@H]1CC(=O)c2c(cc3c(c2O)COC(C)(O)C3)[C@@H]1O (stereo partly drawn) [Chrysanthone C] | 35 | 10 | 54 | – | – | – | – | – | – | – | – | –
2 | CO[C@@H]1CC(=O)c2c(cc3cc(C)ncc3c2O)[C@@H]1O [Chrysanthone A] | – | 0.4 | – | 1.5 | 35 | 80 | 7.8 | 11.6 | 15.8 | 44 | 52%±2.8 | –
3 | Cc1ccc(C(=O)Nc2ccc(S(=O)(=O)O)c3cc(S(=O)(=O)O)cc(S(=O)(=O)O)c23)cc1NC(=O)c1cccc(NC(=O)Nc2cccc(C(=O)Nc3cc(C(=O)Nc4ccc(S(=O)(=O)O)c5cc(S(=O)(=O)O)cc(S(=O)(=O)O)c45)ccc3C)c2)c1 [Suramin, reference compound] | > 500 | 100 | – | – | – | – | – | – | – | – | – | 100

Reference: patent publication US6887883B2, “Use of natural chrysanthone compounds having antiangiogenic activity” (Sigma-Tau Industrie Farmaceutiche Riunite S.p.A., priority 2000, dated 2005)
